Positions of bridges follow the written chain, without caps; N, C: chain ends. Residues, ends and D or L forms follow the SMILES beside them.
Assays:
blood lactate = experiment: Blood lactate concentration, anesthetized Wistar rats, IV infusion; format: in vivo, rat
Experimental: This study was performed over multiple experiments using a total of 48 adult male Wistar rats. […] Compounds were infused via an IV catheter at six sequentially increasing doses. A group of vehicle-administered animals received vehicle throughout the study and data were reported from intervals timed analogously with the dose-response in compound 1-administered animals.
(§1) On the day of experimentation animals were anesthetized and instrumented. A tracheostomy was performed to allow assisted respiration and three catheters were placed. Laser Doppler probes were positioned on a shaved portion of the animal's lower abdominal skin for blood-flow measurements. Ventilation was initiated, and baseline readings for the primary parameter of skin blood flow (SBF) were recorded. Readings for the secondary parameters were also recorded: (1) blood lactate concentration, (2) mean arterial pressure (MAP), and (3) blood pH. Data collection was performed continuously for SBF and MAP using NOTOCORD-hem™ (Instem), and blood samples were taken at each compound dose and immediately analyzed using an i-STAT® meter.

rV2 receptor = target: T1, rV2 receptor (Rattus norvegicus, UniProt Q00788); experiment: Luciferase reporter gene assay, rat V2; format: cell-based; settings: read-out: % MPE
T1 construct: expressed in transfected cells; host or cells: HEK-293 cells (ATCC), transient
T1 sequence (Q00788 whole entry): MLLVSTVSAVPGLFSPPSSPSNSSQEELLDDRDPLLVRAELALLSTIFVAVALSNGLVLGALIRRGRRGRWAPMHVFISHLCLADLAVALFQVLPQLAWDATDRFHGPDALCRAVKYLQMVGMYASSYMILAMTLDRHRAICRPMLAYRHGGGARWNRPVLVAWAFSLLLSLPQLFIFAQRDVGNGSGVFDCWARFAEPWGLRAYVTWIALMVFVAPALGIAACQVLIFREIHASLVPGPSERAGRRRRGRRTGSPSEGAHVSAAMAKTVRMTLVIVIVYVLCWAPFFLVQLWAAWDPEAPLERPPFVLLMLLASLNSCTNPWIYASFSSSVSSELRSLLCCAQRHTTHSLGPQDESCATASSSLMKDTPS
Experimental: (§2) Cell Lines. Studies were conducted with cell lines expressing rat (r) or human (h) Via, V1b, V2, or OT receptors. For the experiments with human receptors, human embryonic kidney (HEK)-flp-in cells stably expressing the lacZ-Zeocin™ fusion gene were used for expression of hV1a and hV1b. These cells were designed for use with the Flp-In™ expression vector containing the gene of interest (here hV1a or hV1b) and the Flp recombinase expression plasmid, pOG44. For hV2 and hOTR, HEK-293 cells transiently expressing hV2 were used.
(§3) Functional Cell-Based Assays.

rOTR = target: T2, rOTR (Rattus norvegicus, UniProt P70536); experiment: Luciferase reporter gene assay, rat OT; format: cell-based; settings: read-out: % MPE
T2 construct: expressed in transfected cells
T2 sequence (P70536 1-388): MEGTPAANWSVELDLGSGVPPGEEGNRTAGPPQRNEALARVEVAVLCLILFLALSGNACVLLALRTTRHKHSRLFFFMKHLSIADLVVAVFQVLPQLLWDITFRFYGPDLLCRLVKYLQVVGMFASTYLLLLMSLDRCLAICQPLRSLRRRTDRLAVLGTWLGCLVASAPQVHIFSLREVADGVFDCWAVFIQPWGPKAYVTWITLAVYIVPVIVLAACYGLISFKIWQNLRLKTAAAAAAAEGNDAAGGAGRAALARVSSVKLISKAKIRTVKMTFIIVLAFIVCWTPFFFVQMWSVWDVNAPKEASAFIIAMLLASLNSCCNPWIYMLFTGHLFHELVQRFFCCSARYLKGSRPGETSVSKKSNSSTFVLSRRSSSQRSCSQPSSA
Experimental: as §2, §3

skin blood flow (SBF) = experiment: Skin blood flow (SBF), laser Doppler, anesthetized Wistar rats, IV infusion; format: in vivo, rat
Experimental: This study was performed over multiple experiments using a total of 48 adult male Wistar rats. […] Compounds were infused via an IV catheter at six sequentially increasing doses.
as §1
After the final dose administration, animals were euthanized and a final SBF measurement was recorded to detect any signal from the flow probe after the animal's heart stopped beating to control for a signal not attributed to blood flow. Animal body temperature, pulse, and ventilation adequacy were monitored throughout the procedure.

[1] = test system: V1a, V1b, and V2 receptors; settings: cited from earlier work
[2] = test system: mean arterial pressure (MAP); experiment: Telemetry: ΔMAP in cynomolgus monkeys, Compound 1 (SC) versus terlipressin (IV); format: in vivo, cynomolgus monkey
Experimental: The in-life portion of the study was performed over multiple dosing sessions using six non-naive adult male cynomolgus monkeys. Animals were previously (3-4 weeks before study start) instrumented with indwelling pressure telemetry devices and trained to be restrained in chairs. Animals had access to food and drinking water ad libitum.
Stock solutions were diluted in saline on the day of administration. Animals with indwelling pressure telemetry devices were trained to be restrained in chairs for 8-h periods.
On the day of administration, animals were restrained, and telemetric measurements were collected continuously starting ≥2 h before administration. Baseline values of arterial pressure (diastolic and systolic), heart rate, and body temperature were obtained.
The data reported herein were collected over 19 dosing sessions of four animals each, using a total of six monkeys. Animals were repeat dosed in a crossover design with at least one animal receiving vehicle for each round; the animal receiving vehicle was varied between rounds. A 48- to 72-h washout period was used between dosing sessions. Animals were observed by camera for ~1 h before dosing (covering the baseline period) and up to 3 h after dosing.

[3] = test system: methionine/choline-deficient (MCD) diet rats; experiment: MAP / ΔMAP in methionine/choline-deficient (MCD) diet rats; format: in vivo, rat; settings: for Δ MAP (mean): 100 μg/kg, IA, MCD diet rats
Experimental: The terlipressin dose was 100 μg/kg.
Data were evaluated as change […] from baseline.

[4] = test system: methionine/choline-deficient (MCD) diet rats; experiment: ΔPP in methionine/choline-deficient (MCD) diet rats; format: in vivo, rat; settings: 100 μg/kg, IA, MCD diet rats

Q: For `NC(=O)CC[C@@H]1NC(=O)[C@H](Cc2ccccc2)NC(=O)[C@H](Cc2ccc(O)cc2)NC(=O)[C@@H](N)CSSC[C@@H](C(=O)N2CCC[C@H]2C(=O)N[C@@H](CCCN=C(N)N)C(=O)NCC(N)=O)NC(=O)[C@H](CC(N)=O)NC1=O` [AVP, arginine vasopressin, reference compound], which blood lactate concentration (blood lactate; 3 pmoL/kg/min IV) is on record?
A: 1.34 mM

Q: And the blood lactate concentration (blood lactate; 600 pmoL/kg/min IV)?
A: 4.27 mM

Q: What about the “increase in blood lactate levels” value (blood lactate; IV) of the same molecule?
A: ≥ 2 fold

Q: And the “effect on blood lactate concentration” value (blood lactate; IV, up to maximum dose tested)?
A: significantly elevated

Q: And the Emax (rV2 receptor)?
A: 98%

Q: What about the Emax (rOTR) of the same molecule?
A: 82%

Q: And the “SBF ED50” value (skin blood flow (SBF))?
A: 12.6 pmol/kg/min

Q: What about the “decrease in skin blood flow, approximate maximum” value (skin blood flow (SBF)) of the same molecule?
A: about 90%

Q: What about the “greatest percent change from baseline in skin flow” value (skin blood flow (SBF)) of the same molecule?
A: −89.5%

Q: Which receptor agonism type ([1]; V1a, V1b, and V2 receptors) does the source give for `NCCCC[C@H](NC(=O)[C@@H]1CCCN1C(=O)[C@@H]1CSSC[C@H](N)C(=O)N[C@@H](Cc2ccc(O)cc2)C(=O)N[C@@H](Cc2ccccc2)C(=O)N[C@@H](CCC(N)=O)C(=O)N[C@@H](CC(N)=O)C(=O)N1)C(=O)NCC(N)=O` [Lysine vasopressin (LVP), Lysine vasopressin] here?
A: full agonist

Q: What does the source list for `NCCCC[C@H](NC(=O)[C@@H]1CCCN1C(=O)[C@@H]1CSSC[C@H](NC(=O)CNC(=O)CNC(=O)CN)C(=O)N[C@@H](Cc2ccc(O)cc2)C(=O)N[C@@H](Cc2ccccc2)C(=O)N[C@@H](CCC(N)=O)C(=O)N[C@@H](CC(N)=O)C(=O)N1)C(=O)NCC(N)=O` [Terlipressin, reference compound] (H-GGGCYFQNCPKG-NH2; disulfide 4-9)?
A: average increase in MAP, 30 min to 5 h ([2]; IV 0.03 mg/kg): 6.0 mmHg; maximum MAP values (increase from baseline) ([2]; IV 0.03 mg/kg (vehicle 22.2)): 29.6±3.6 mmHg; average increase in MAP, 30 min to 5 h ([2]; IV 0.09 mg/kg): 5.8 mmHg; maximum MAP values (increase from baseline) ([2]; IV 0.09 mg/kg (vehicle 22.2)): 29.9±6.2 mmHg; average increase in MAP, 30 min to 5 h ([2]; IV 0.17 mg/kg): 14.6 mmHg; maximum MAP values (increase from baseline) ([2]; IV 0.17 mg/kg (vehicle 22.2)): 50.8±5.6 mmHg; average increase in MAP, 30 min to 5 h ([2]; IV 0.34 mg/kg): 14.7 mmHg; maximum MAP values (increase from baseline) ([2]; IV 0.34 mg/kg (vehicle 22.2)): 41.2±7.5 mmHg; time of maximum ΔMAP ([2]; IV, all groups): 5 to 30 min; ΔMAP by 150 min ([2]; IV, all groups): negligible; Δ MAP (mean) ([3]; 0 min): 0.0 mmHg; Δ MAP (mean) ([3]; 1 min): 6.1 mmHg; Δ MAP (mean) ([3]; 10 min): 32.0 mmHg; Δ MAP (mean) ([3]; 90 min): 5.2 mmHg; rapid increase in MAP, up to ([3]; intra-arterial, FIG. 34): about 35 mmHg; serious adverse events ([1]; gastrointestinal disorders, sepsis, respiratory failure): associated with serious adverse events; effect on ascites formation ([1]; non-selective full agonist, continuous i.v. infusion): reduced ascites formation; short-term mortality ([1]; plus albumin, HRS-AKI, versus placebo): reduces short-term mortality; Δ PP (mean) ([4]; 0 min): 0.0 mmHg; Δ PP (mean) ([4]; 1 min): −1.5 mmHg; Δ PP (mean) ([4]; 2 min): −2.1 mmHg; Δ PP (mean) ([4]; 3 min): −2.3 mmHg; Δ PP (mean) ([4]; 5 min): −2.4 mmHg; Δ PP (mean) ([4]; 7 min): −2.5 mmHg; Δ PP (mean) ([4]; 10 min): −2.4 mmHg; Δ PP (mean) ([4]; 15 min): −2.5 mmHg; Δ PP (mean) ([4]; 20 min): −2.6 mmHg; Δ PP (mean) ([4]; 30 min): −2.5 mmHg; Δ PP (mean) ([4]; 60 min): −2.8 mmHg; Δ PP (mean) ([4]; 90 min): −0.8 mmHg

From patent publication US20260315609A1, “MIXED VASOPRESSIN RECEPTOR AGONIST-ANTAGONIST FOR TREATING END-STAGE LIVER DISEASE AND COMPLICATIONS ASSOCIATED THEREOF” (FERRING B.V., priority 2022, published 2026)
